Results: US10316079B2, “Monoclonal antibody against muramyl peptides” (priority 2012, dated 2019)

Key:
Escherichia coli = experiment: MPs released into culture supernatant with amoxicillin, competitive ELISA using 2E7; type: cell-based; details: 40 μg per ml amoxicillin added at OD600=1.5; vs untreated culture
Procedure: (§1) Power Fit equation y=a*(x−b)^c using CurveExpert Basic. The standard curve was used to determine the peptidoglycan to concentration in a sample. […] Both bacteria were grown to OD600=1.5. Each culture was divided into two, and one treated with 40 μg/ml amoxicillin (Atex) and the other untreated. Aliquots were collected at the indicated times and the amount of MPs in the supernatant was determined by competitive ELISA. […] After removing unbound antibodies by PBS washes, the cells were incubated with a FITC-labeled anti-mouse IgG Ab before fluorescence microscopic examination.
(§2) For this test, Gram-positive bacterium Staphylococcus aureus, which has a thick peptidoglycan layer, and […] Escherichia coli, which has a thin peptidoglycan layer, were selected and grown in the presence or absence of amoxicillin. The culture was grown to a density of OD600=1.5 and then divided into two equal aliquots. To one aliquot, amoxicillin was added to a final concentration of 40 μg per ml, and to the other aliquot, no drug was added. Both cultures were allowed to continue to grow. Aliquots of cultures were collected at timed intervals and cells were removed by centrifugation. The amount of MPs in the supernatant was determined by competitive ELISA using 2E7.

Staphylococcus aureus = experiment: as above; type: cell-based; details: 40 μg per ml amoxicillin added at OD600=1.5; vs untreated culture
Procedure: as §1, §2

[1] = system: bacteria of the mouse microbiota; experiment: Blood MP level in mice fed amoxicillin, competitive ELISA using 2E7; type: in vivo; details: amoxicillin 100 mg/kg fed at 12-h intervals, 4 h after each feeding
Procedure: Amoxicillin was administered orally to 50 mice at 12-h intervals and three mice were sacrificed every 4 h to collect blood for peptidoglycan quantification by ELISA. […] Serial blood samples were taken. Time for blood draw and IV injection are indicated.
The MP level in serum was determined by competitive ELISA using an example of the antibody of the present disclosure, i.e. 2E7.

[2] = system: binding of 2E7 to N-acetylmuramyl-L-alanyl-D-isoglutamine conjugated to OVA; experiment: Competitive ELISA for antigen specificity of 2E7; set-up: species or system mouse; details: concentration dependent, compared with N-acetylmuramyl-L-alanyl-D-isoglutamine
Excerpt: To enhance the antigenicity of the MDPs, these molecules were conjugated to the human serum albumin (HSA) using a linker molecule. The carboxylic acid moiety of MDPs was first coupled to N-Boc-ethylenediamine, and then the Boc protection group was removed and the resulting amine was linked to HSA with glutaraldehyde. […] The MDP-HSA conjugates were then used to immunize BALB/c mice. Serum antigen-specific titers of the immunized mice were examined by enzyme-linked immunosorbent assay (ELISA) against MDPs conjugated to ovalbumin (OVA) using the same linkage strategy as described above. Generation of hybridoma cell lines, screening of antibody-producing clones, preparation and purification of mAbs, and mAb isotyping were carried out by following standard protocols. Antigen specificity of a mAb was determined using competitive ELISA to test the ability of different MDPs and constituent moieties to inhibit the binding of a mAb to the MDP originally used as antigen for immunization.

Compound	molecules in culture medium that inhibit 2E7 binding to N-acetylmuramyl-L-alanyl-D-isoglutamine (MPs) (Escherichia coli)	molecules in culture medium that inhibit 2E7 binding to N-acetylmuramyl-L-alanyl-D-isoglutamine (MPs) (Staphylococcus aureus)	increase in the blood MP level [1]	inhibition of 2E7 binding to N-acetylmuramyl-L-alanyl-D-isoglutamine conjugated to OVA [2]
CC1(C)S[C@@H]2[C@H](NC(=O)[C@H](N)c3ccc(O)cc3)C(=O)N2[C@H]1C(=O)O [amoxicillin]	sharp increase	sharp increase	20-60%	
CC(NC(=O)C(C)OC1C(N)C(O)OC(CO)C1O)C(=O)NC(CCC(=O)O)C(=O)O [muramyl-L-alanyl-D-glutamate]				almost as effectively as N-acetylmuramyl-L-alanyl-D-isoglutamine
CC(=O)N[C@H]1C(O)O[C@H](CO)[C@@H](O)[C@@H]1O[C@H](C)C(=O)N[C@H](C)C(=O)N[C@H](CCC(=O)O)C(=O)O (stereo partly drawn) [N-acetylmuramyl-L-alanyl-D-glutamate]				almost as effectively as N-acetylmuramyl-L-alanyl-D-isoglutamine
muramyl-L-alanyl-D-isoglutamine				almost as effectively as N-acetylmuramyl-L-alanyl-D-isoglutamine
